What all share (format): cell-based
For assay [1], the system named is SARS-CoV-2 (USA-WA1/2020 variant). As to the kind of experiment: Virus CPE assay in Vero-E6 cells, USA-WA1/2020. Particulars: for EC50: USA-WA1/2020, Vero-E6, 4 days, read-out: EC50, inhibition of CPE; for inhibition at 3 µM: single treatment at 3 μM.
The subject of assay [2] is SARS-CoV-2 B.1.1.7/Alpha variant. Kind of assay: Virus CPE assay in Vero-E6 cells, B.1.1.7. Particulars: Severe acute respiratory syndrome coronavirus 2, Vero C1008, 96 h; B.1.1.7, Vero-E6, 4 days; read-out: EC50, inhibition of CPE.
For assay [3], the system named is SARS-CoV-2 B.1.351/Beta variant. As to the kind of experiment: Virus CPE assay in Vero-E6 cells, B.1.351. Particulars: Severe acute respiratory syndrome coronavirus 2, Vero C1008, 96 h; B.1.351, Vero-E6, 4 days; read-out: EC50, inhibition of CPE.
The mark [4] stands for this setting: Severe acute respiratory syndrome coronavirus 2, Vero C1008, 96 h.
Setting [5] is: Severe acute respiratory syndrome coronavirus 2, Vero C1008, 5 experiments of 8-fold replicates, read-out: percent of wells with CPE inhibited.

Like-named read-outs stand apart in the source and are kept apart here.

A word on the EC50: it is the midpoint of the concentration-response curve. `COc1cccc2[nH]c(C(=O)N[C@@H](CC(C)C)C(=O)N[C@@H](C[C@@H]3CCNC3=O)C(=O)COC(=O)c3c(Cl)cccc3Cl)cc12` [AP-8-001, reference compound]: in assay [1] (setting [4]), the EC50 is 1.2 ± 0.3 µM.
The same measure, in the same setting: as for `O=C(CN1C(=O)[C@@H](NC(=O)c2ccccc2)COc2ccccc21)N[C@@H](C[C@@H]1CCNC1=O)C(=O)COC(=O)c1c(Cl)cccc1Cl` [AP-8-011, (S)-3-(2-((S)-3-benzamido-4-oxo-3,4-dihydrobenzo[b][1,4]oxazepin-5(2H)-yl)acetamido)-2-oxo-4-((S)-2-oxopyrrolidin-3-yl)butyl 2,6-dichlorobenzoate], the figure is 14.1 ± 3.6 µM.
On to `O=C(CN1C(=O)[C@@H](NC(=O)OCc2ccccc2)COc2ccccc21)N[C@@H](C[C@@H]1CCNC1=O)C(=O)COC(=O)c1c(Cl)cccc1Cl` [AP-8-013, (S)-3-(2-((S)-3-(benzyloxycarbonylamino)-4-oxo-3,4-dihydrobenzo[b][1,4]oxazepin-5(2H)-yl)acetamido)-2-oxo-4-((S)-2-oxopyrrolidin-3-yl)butyl 2,6-dichlorobenzoate], for which the values for the EC50 in assay [1] (setting [4]), in assay [2] and in assay [3] were 12.8 ± 1.6 µM, 10.6 ± 1 µM and 5.5 ± 0.4 µM, respectively. Besides, in assay [1] (setting [5]), the inhibition at 3 µM was determined as 7.5%.
Consider `CC(C)C[C@H](NC(=O)OCc1ccccc1)C(=O)N[C@@H](C[C@@H]1CCNC1=O)C(O)S(=O)(=O)O` (stereo partly drawn) [GC-376], for which the EC50 in assay [1] (setting [4]) is 3.4 ± 0.9 µM; in assay [1] it was 3.3 ± 1.2 µM; in assay [2] it was 1.3 ± 0.6 µM.
As to `CCC(CC)COC(=O)[C@H](C)N[P@](=O)(OC[C@H]1O[C@@](C#N)(c2ccc3c(N)ncnn23)[C@H](O)[C@@H]1O)Oc1ccccc1` [Remdesivir], the EC50 in assay [1] (setting [4]) amounted to 3.1 ± 0.7 µM. In addition, the inhibition at 1 µM in assay [1] (Severe acute respiratory syndrome coronavirus 2, Vero C1008, single treatment at 1 μM, 5 experiments of 8-fold replicates, read-out: percent of wells with CPE inhibited) came to 2.5 ± 2.5%. Besides, the inhibition at 3 µM in assay [1] (setting [5]) amounted to 15 ± 9.2%.

Source of the values: patent US20250092029A1 (THE WISTAR INSTITUTE OF ANATOMY AND BIOLOGY, priority 2022, published 2025).
